From patent US20240240226A1, “FLUOROGENIC ASSAY FOR RAPID SCREENING OF BACTERIAL BETA-LACTAMASE ACTIVITY” (The Board of Trustees of the Leland Stanford Junior …, priority 2021, published 2024)
One block for each compound: values may come before it.

Legend:
[1] = pH=8; cited from earlier work
esterase = assay: DARR response to esterase and H2O2; type: biochemical; conditions: esterase 1 μg/mL, different concentrations of H2O2, room temperature
Procedure: FIG. 11 illustrates that esterase sensitizes DARR in response to H2O2. a) Structure of DARR and its hydrolysis by esterase and oxidation into fluorescent resorufin by H2O2. b) Fluorescence enhancement of DARR treated with esterase (1 μg/mL) and different concentrations of H2O2 at room temperature. Data were collected on a Tecan Safire microplate reader with excitation at 570 nm and emission at 600 nm. A.U. indicates arbitrary units.
As oxidation is the essential step in converting β-lactamase/esterase processed CDA to resorufin, the stability of CDA was evaluated in different concentrations of H2O2 (FIG. 2a). […] The sulfur center of CDA was also stable in H2O2 (1 mM) (FIG. 9).

[2] = target: T1, horseradish peroxidase (HRP) (Armoracia rusticana, UniProt P00433); assay: Amplex red fluorescence turn-on with HRP and H2O2; type: biochemical; conditions: HRP 1 unit/mL, H2O2 1 uM, 10 μM AR in PBS, room temperature, 5 min
T1 sequence (P00433 31-338): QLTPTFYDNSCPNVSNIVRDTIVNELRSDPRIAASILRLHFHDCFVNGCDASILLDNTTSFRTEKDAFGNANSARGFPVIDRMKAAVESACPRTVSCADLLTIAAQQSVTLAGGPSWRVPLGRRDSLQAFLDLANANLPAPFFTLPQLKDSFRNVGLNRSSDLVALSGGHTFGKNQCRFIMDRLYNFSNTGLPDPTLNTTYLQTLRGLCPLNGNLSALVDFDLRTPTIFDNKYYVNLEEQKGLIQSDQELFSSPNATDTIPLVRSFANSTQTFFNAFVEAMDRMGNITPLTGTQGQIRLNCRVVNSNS
Procedure: FIG. 6 illustrates the fluorescence spectra of CDA and Amplex red. a) Fluorescent emission spectra of PBS, CDA, and AR (10 μM probes in PBS; excitation, 525 nm). b) Fluorescent emission spectra of CDA treated with esterase (1 μg/mL), TEM-1 Bla (100 nM) and H2O2 (1 mM) at room temperature for 8 hours. c) Fluorescent emission spectra of AR and AR treated with HRP and H2O2 at room temperature for 5 min (10 μM AR in PBS, HRP 1 unit/mL, H2O2 1 uM) (excitation, 525 nm). A.U. indicates arbitrary units.
The synthesis of CDA is outlined in Scheme 1 (FIG. 28). DARR was prepared from resazurin sodium salt through reduction and acetylation (Han et al., Chemistry (2016) 11: 818-822) and conjugated to the oxidized cephalosporin chloride with a self-immolative linker 4-mercaptobenzyl alcohol to afford CDA after reduction and deprotection. When incubated with a recombinant class A cephalosporin-hydrolyzing β-lactamase TEM-1 (TEM-1 Bla, FIGS. 7 and 8), esterase, and hydrogen peroxide (H2O2), CDA generated approximately 1200-fold fluorescence turn-on (FIGS. 1b and 6b).

Structure (SMILES): O=c1ccc2nc3ccc(O)cc3oc-2c1 [resorufin]
fluorescence quantum yield ϕ [1]: 0.75

response to esterase (esterase): fast response to esterase
Structure (SMILES): CC(=O)Oc1ccc2c(c1)Oc1cc(OC(C)=O)ccc1N2 [DARR, 10H-phenoxazine-3,7-diyl diacetate]

fluorescence turn-on [2]: 413 fold
Structure (SMILES): CC(=O)N1c2ccc(O)cc2Oc2cc(O)ccc21 [Amplex red, 10-Acetyl-3,7-dihydroxyphenoxazine]
